Assay results published in paper PMC12113342, “Identification of TRPV1-Inhibitory Peptides from Takifugu fasciatus Skin Hydrolysate and Their Skin-Soothing Mechanisms” (Marine Drugs, 2025).
“And” between values parts separate entries of the source, which are not always exact repeats. Identical values can stand only once.

Key:
RAW 264.7 cells = test: MTS cytotoxicity assay in RAW 264.7 cells; assay type: cell-based; settings: 800 μM peptide
Excerpt: (§1) The 20 peptides with the top scores were selected and entrusted to Nanjing GenScript Biotechnology Co., Ltd., with synthetic sample purity > 95%. The process was as follows: Select the appropriate resin, pretreat it with solvent, remove the resin protective group, and expose the active site. The first protective amino acid is activated and coupled to the resin, and the amino protecting group of the amino acid is removed after washing. Repeat the “Activation–Conjugation–Deprotection” step and gradually add amino acids to lengthen the peptide chain. The peptide is cleaved from the resin with reagents such as TFA while the side-chain guard group is removed. Peptides are precipitated, washed, purified by HPLC, and identified by mass spectrometry. RAW 264.7 cells were purchased from Peking Union Medical College. The cytotoxicity of 20 candidate peptides towards RAW 264.7 cells is evaluated in an MTS assay (Promega, Madison, WI, USA), adapted from reference with modifications. RAW 264.7 cells are maintained in Dulbecco’s Modified Eagle Medium (DMEM, C11995500BT, Gibco, Grand Island, NY, USA) supplemented with 10% fetal bovine serum (F8687, Merck, Darmstadt, Germany) and 1% penicillin-streptomycin (C0222, Beyotime, Shanghai, China) at 37 °C under 5% CO2. […] NO production is measured using a NO detection kit (G2930, Promega) following the manufacturer’s protocol.

[1] = test system: NF-κB p65 in CAP-induced HaCaT cells; test: Western blot of NF-κB p65 in CAP-induced HaCaT cells; assay type: cell-based; settings: varying concentrations of T14 6 h pretreatment, CAP 24 h, total cellular protein
Experimental: Adapted from a previous study with modifications, HaCaT cells were seeded into 6-well plates at a density of 2.0 × 10^5 CFU/mL and cultured for 8–12 h. Cells were pretreated with varying concentrations of T14 for 6 h, followed by co-stimulation with CAP for 24 h. After washing with Dulbecco’s phosphate-buffered saline, the cells were lysed on ice for 1 h using RIPA Lysis Buffer (R0010, Solarbio). Lysates were centrifuged at 12,000× g for 30 min at 4 °C, and the supernatants were collected. Protein concentrations were quantified using a BCA assay and normalized. Loading buffer (P1016, Solarbio) was added at a 1:3 ratio, and the samples were denatured at 95 °C for 5 min using a heat block before being stored at −20 °C.
Proteins (10 μL/lane) were resolved via sodium dodecyl sulfate-polyacrylamide gel electrophoresis and transferred onto polyvinylidene fluoride membranes. Membranes were blocked with 5% skim milk in Tris-buffered saline containing 0.1% Tween-20 for 2 h at room temperature. Primary antibodies against NF-κB p65 (8242T, Cell Signaling Technology, Danvers, MA, USA) and GAPDH (CL594-6004, Abclonal, Wuhan, China) were diluted according to the manufacturer’s guidelines and incubated overnight at 4 °C. […] Band intensities were quantified using ImageJ software.

[2] = test system: ET-1 in LPS-induced HUVECs; test: ET-1 ELISA in LPS-induced HUVECs; assay type: cell-based, human; settings: LPS 10 μg/mL 24 h; for ET-1 inhibition rate: (LPS − peptide)/(LPS − control)
Experimental: (§2) HUVEC cell were purchased from Peking Union Medical College. HUVECS were cultured according to protocols provided by the Peking Union Medical College Cell Bank. Cells were maintained in DMEM supplemented with 10% fetal bovine serum, 1% penicillin-streptomycin, 1% GlutaMAX™ (25030149, Gibco), 1% non-essential amino acids (N1250, Solarbio), and 2% sodium pyruvate (11360070, Gibco) at 37 °C under 5% CO2. Cells in the logarithmic growth phase were seeded into 24-well plates at 2 × 10^5 CFU/mL and incubated overnight. After supernatant removal, the cells were pretreated with varying concentrations of T14 peptide (50, 100, 200, 400 μM) for 6 h, followed by co-stimulation with LPS (10 μg/mL) for 24 h. Cell culture supernatants were collected, and the expression levels of ET-1 and ICAM-1 were quantified using ELISA kits (E-EL-H0064 for ET-1, E-EL-H6114 for ICAM-1; Procell, Wuhan, China) according to the manufacturer’s instructions. The inhibition rate was calculated using the following formula:Inhibition rate (%) = (LPS − peptide)/(LPS − control) × 100%

[3] = test system: LPS-induced RAW 264.7 cells; test: NO production in LPS-induced RAW 264.7 cells; assay type: cell-based; settings: 200 μM peptide, 2 h pretreatment, then LPS (1 μg/mL) 24 h; vs LPS-treated group
Excerpt: as §1

[4] = test system: TRPV1-mediated Ca2+ influx in CAP-induced HaCaT cells; test: Capsaicin-induced Ca2+ influx in HaCaT cells (Fluo-4AM fluorescence); assay type: cell-based; settings: 200 μM peptide, 24 h pretreatment, CAP-stimulated HaCaT cells
Experimental: HaCaT cells were purchased from the Kunming Cell Bank, Chinese Academy of Sciences. Adapted from a previous study with modifications, HaCaT cells were cultured in DMEM supplemented with 10% fetal bovine serum and 1% penicillin-streptomycin at 37 °C under 5% CO2. Cells in the logarithmic growth phase were harvested and adjusted to a density of 1 × 10^5 CFU/mL. Cell suspensions (100 μL/well) were seeded into 96-well plates and incubated for 8–12 h. After removing the supernatant, the cells were treated with T10, T14, or T18 peptide solutions (200 μM) for 2, 6, 12, or 24 h, followed by stimulation with 100 μL CAP (IC0060, Solarbio) per well. Untreated cells served as blank controls. Intracellular Ca^2+ levels were quantified using a calcium ion assay kit (S1061S; Beyotime) according to the manufacturer’s protocol. Fluorescence images were captured using an inverted fluorescence microscope and analyzed using ImageJ software (NIH, Bethesda, MD, USA) to calculate the average fluorescence intensity.

[5] = test system: LPS-induced RAW 264.7 cells; test: Mouse cytokine array of LPS-induced RAW 264.7 cell supernatants; assay type: cell-based; settings: T14 200 μM 6 h pretreatment, LPS 24 h; vs LPS group
Experimental: The expression levels of 40 cytokines and chemokines in RAW 264.7 cell culture supernatants were analyzed using the Proteome Profiler™ Mouse Cytokine Array Panel A (ARY006, R&D Systems, Minneapolis, MN, USA) following the manufacturer’s protocol. Supernatants from treated groups were collected, and 300 μL per sample was used for each array. All reagents were equilibrated to room temperature (26 ± 0.5 °C) prior to use. The array membrane was blocked with blocking buffer for 2 h at room temperature. During blocking, the detection antibody cocktail was mixed with the cell supernatant and incubated at room temperature for 1 h. The mixture was then transferred to the blocked membrane and incubated overnight at 4 °C. Post-incubation, the membrane was washed three times with wash buffer (≥10 min per wash). Horseradish peroxidase-conjugated streptavidin was added, and the membrane was incubated for 2 h at room temperature. After thorough washing, a chemiluminescent substrate was applied, and signals were captured using a chemiluminescence imaging system. The array images were analyzed using ImageJ software to quantify the integrated optical density.

[6] = test system: ICAM-1 in LPS-induced HUVECs; test: ICAM-1 ELISA in LPS-induced HUVECs; assay type: cell-based, human; settings: LPS 10 μg/mL 24 h; for ICAM-1 inhibition rate: (LPS − peptide)/(LPS − control); for ICAM-1 level: control 0.43, LPS 0.57 pg/mL
Experimental: as §2

| Substance | cell viability (RAW 264.7 cells) | p65 expression [1] | ET-1 inhibition rate ([2]; 100 μM T14, 6 h pretreatment) | ET-1 inhibition rate ([2]; 400 μM T14, 6 h pretreatment) | ET-1 level ([2]; 400 μM T14, 6 h pretreatment, control 2.05, LPS 2.7 pg/mL) | Inhibitory effect on NO production [3] | inhibition rate of Ca2+ fluorescence intensity [4] | TIMP-1 expression [5] | expression of G-CSF, GM-CSF, ICAM-1, IL-3, IL-6, IL-23 and TNF-α [5] | expression of M-CSF, IL-1α, IL-7, IL-13, IL-12P70, IL-16, IL-17, IL-27, CCL3, CCL4, CXCL2 and CCL5 [5] | ICAM-1 inhibition rate ([6]; 50 μM T14, 6 h pretreatment) | ICAM-1 level ([6]; 50 μM T14, 6 h pretreatment) | ICAM-1 inhibition rate ([6]; 400 μM T14, 6 h pretreatment) | ICAM-1 level ([6]; 400 μM T14, 6 h pretreatment) |
| --- | --- | --- | --- | --- | --- | --- | --- | --- | --- | --- | --- | --- | --- | --- |
| IFDL [T5, hit peptide from T. fasciatus skin hydrolysate, made by solid-phase synthesis] | proliferative effects | – | – | – | – | – | – | – | – | – | – | – | – | – |
| LFIL [T9, hit peptide from T. fasciatus skin hydrolysate, made by solid-phase synthesis] | proliferative effects | – | – | – | – | – | – | – | – | – | – | – | – | – |
| LDIF [T14, hit peptide from T. fasciatus skin hydrolysate, made by solid-phase synthesis] | – | markedly reduced p65 expression | 24.47% | 75.0% | 2.2 pg/mL | significant inhibition | 73.1% | markedly upregulated | significantly downregulated | moderate downward trend | 20.65% | 0.54 pg/mL | 49.0% and 48.96% | 0.50 pg/mL |
